Results on one molecule are retold here after patent publication US20110280940A1, “Di-Vanilloyl And Tri-Vanilloyl Derivatives For Use In Anti-Cancer Therapy” (priority 2008, published 2011).

The test has as its target Erk2 (Rattus norvegicus, UniProt P63086). As to the kind of experiment: Kinase activity assay, Erk2. It is filed as biochemical. To be noted: 10 μM, 1% DMSO, 15 μM ATP; residual activity. The method, then:
Buffer A: 10 mM MgCl2, 1 mM EGTA, 1 mM DTT, 25 mM Tris-HCl pH 7.5, 50 μg heparin/ml. Buffer C: 60 mM β-glycerophosphate, 15 mM p-nitrophenylphosphate, 25 mM Mops (pH 7.2), 5 mM EGTA, 15 mM MgCl2, 1 mM DTT, 1 mM sodium vanadate, 1 mM phenyl phosphate.
Kinase activities were assayed in Buffer A or C, at 30° C., at a final ATP concentration of 15 μM. Blank values were subtracted and activities expressed in % of the maximal activity, i.e. in the absence of inhibitors. Controls were performed with appropriate dilutions of DMSO.
Erk2 (rat, recombinant) was assayed as described for CDK1 but using the specific substrate Ets1 (amino acids 1-138) in buffer A.

Each structure is given as a SMILES string.

Chain of Erk2 (P63086 whole entry): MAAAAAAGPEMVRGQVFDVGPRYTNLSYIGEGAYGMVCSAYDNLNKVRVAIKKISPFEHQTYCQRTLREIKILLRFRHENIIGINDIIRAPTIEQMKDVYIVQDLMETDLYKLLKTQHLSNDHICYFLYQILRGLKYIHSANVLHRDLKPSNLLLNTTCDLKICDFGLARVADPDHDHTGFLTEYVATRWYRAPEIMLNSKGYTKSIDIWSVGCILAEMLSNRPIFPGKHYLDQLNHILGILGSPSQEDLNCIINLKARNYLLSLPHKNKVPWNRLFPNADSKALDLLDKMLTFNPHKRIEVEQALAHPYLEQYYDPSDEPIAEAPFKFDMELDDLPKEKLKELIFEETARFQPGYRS

Consider `COc1cc(C(=O)OCCOC(=O)c2ccc(O)c(OC)c2)ccc1O` [DLT1, Ethane-1,2-diyl bis-(4-hydroxy-3-methoxybenzoate)], for which the “% ENZYMATIC ACTIVITY, Erk2” value amounted to 99%.
